Source: patent publication US9085557B2, “Quinolylpiperazino substituted thiolactone compounds and process for the preparation thereof” (Council of Scientific and Industrial Research, priority 2010, dated 2015)
In brackets after ≈: the same amount, converted by molar mass.

What follows are compounds tested on M. tuberculosis H37Rv (ATCC 27294) (assay: MIC determination by broth dilution against M. tuberculosis H37Rv). Settings: M. tuberculosis H37Rv, broth dilution, 3 weeks at 37° C., read visually (no turbidity).
Format: cell-based, Mycobacterium tuberculosis

Structure (SMILES)	MIC [µg/mL]
CC1=C(OCCCCCN2CCN(c3ccnc4cc(C(F)(F)F)ccc34)CC2)C(C)SC1=O (stereo not shown) [Compound 3a, 3,5-dimethyl-4-[(5-4-[7-(trifluoromethyl)-4-quinolyl]piperazinopentyl)oxy]-5H-thiophen-2-one]	16 (≈ 32.4 µM)
CC1=C(OCCCCCCN2CCN(c3ccnc4cc(C(F)(F)F)ccc34)CC2)C(C)SC1=O (stereo not shown) [Compound 3b, 3,5-dimethyl-4-[(6-4-[7-(trifluoromethyl)-4-quinolyl]piperazinohexyl)oxy]-5H-thiophen-2-one]	16 (≈ 31.5 µM)
CC1=C(OCCCCCCCCN2CCN(c3ccnc4cc(C(F)(F)F)ccc34)CC2)C(C)SC1=O (stereo not shown) [Compound 3c, 3,5-dimethyl-4-[(8-4-[7-(trifluoromethyl)-4-quinolyl]piperazinooctyl)oxy]-5H-thiophen-2-one]	16 (≈ 29.9 µM)
CC1=C(OCCCCCCCCCN2CCN(c3ccnc4cc(C(F)(F)F)ccc34)CC2)C(C)SC1=O (stereo not shown) [Compound 3d, 3,5-dimethyl-4-[(9-4-[7-(trifluoromethyl)-4-quinolyl]piperazinononyl)oxy]-5H-thiophen-2-one]	16 (≈ 29.1 µM)
CC1=C(OCCCCCCCCCCN2CCN(c3ccnc4cc(C(F)(F)F)ccc34)CC2)C(C)SC1=O (stereo not shown) [Compound 3e, 3,5-dimethyl-4-[(10-4-[7-(trifluoromethyl)-4-quinolyl]piperazinodecyl)oxy]-5H-thiophen-2-one]	16 (≈ 28.4 µM)
CC1=C(OCCCCCN2CCCN(c3ccnc4cc(C(F)(F)F)ccc34)CC2)C(C)SC1=O (stereo not shown) [Compound 5a, 3,5-dimethyl-4-[(5-4-[7-(trifluoromethyl)-4-quinolyl]-1,4-diazepan-1-ylpentyl)oxy]-5H-thiophen-2-one]	16 (≈ 31.5 µM)
CC1=C(OCCCCCCN2CCCN(c3ccnc4cc(C(F)(F)F)ccc34)CC2)C(C)SC1=O (stereo not shown) [Compound 5b, 3,5-dimethyl-4-[(6-4-[7-(trifluoromethyl)-4-quinolyl]-1,4-diazepan-1-ylhexyl)oxy]-5H-thiophen-2-one]	16 (≈ 30.7 µM)
CC1=C(OCCCCCCCCN2CCCN(c3ccnc4cc(C(F)(F)F)ccc34)CC2)C(C)SC1=O (stereo not shown) [Compound 5c, 3,5-dimethyl-4-[(8-4-[7-(trifluoromethyl)-4-quinolyl]-1,4-diazepan-1-yloctyl)oxy]-5H-thiophen-2-one]	16 (≈ 29.1 µM)
CC1=C(OCCCCCCCCCN2CCCN(c3ccnc4cc(C(F)(F)F)ccc34)CC2)C(C)SC1=O (stereo not shown) [Compound 5d, 3,5-dimethyl-4-[(9-4-[7-(trifluoromethyl)-4-quinolyl]-1,4-diazepan-1-ylnonyl)oxy]-5H-thiophen-2-one]	16 (≈ 28.4 µM)
CC1=C(OCCCCCCCCCCN2CCCN(c3ccnc4cc(C(F)(F)F)ccc34)CC2)C(C)SC1=O (stereo not shown) [Compound 5e, 3,5-dimethyl-4-[(10-4-[7-(trifluoromethyl)-4-quinolyl]-1,4-diazepan-1-yldecyl)oxy]-5H-thiophen-2-one]	8 (≈ 13.8 µM)
CC1=C(OCCCCCCCCCCCCN2CCCN(c3ccnc4cc(C(F)(F)F)ccc34)CC2)C(C)SC1=O (stereo not shown) [Compound 5f, 3,5-dimethyl-4-[(12-4-[7-(trifluoromethyl)-4-quinolyl]-1,4-diazepan-1-yldodecyl)oxy]-5H-thiophen-2-one]	8 (≈ 13.2 µM)
C=C/C(C)=C/[C@@]1(C)SC(=O)C(C)=C1O [Thiolactomycin, reference compound]	25 (≈ 119 µM)

Same assay, conditions: Mycobacterium tuberculosis, 504 h; M. tuberculosis H37Rv, broth dilution, 3 weeks at 37° C., read visually (no turbidity); read-out: MIC

Structure (SMILES)	MIC [µg/mL]
CC1=C(OCCCCCN2CCN(c3ccnc4cc(Cl)ccc34)CC2)C(C)SC1=O (stereo not shown) [Compound 4a, 3,5-dimethyl-4-(5-[4-(7-chloro-4-quinolyl)piperazino]pentyloxy)-5H-thiophen-2-one]	16 (≈ 34.8 µM)
CC1=C(OCCCCCCN2CCN(c3ccnc4cc(Cl)ccc34)CC2)C(C)SC1=O (stereo not shown) [Compound 4b, 3,5-dimethyl-4-(6-[4-(7-chloro-4-quinolyl)piperazino]hexyloxy)-5H-thiophen-2-one]	16 (≈ 33.8 µM)
CC1=C(OCCCCCCCCN2CCN(c3ccnc4cc(Cl)ccc34)CC2)C(C)SC1=O (stereo not shown) [Compound 4c, 3,5-dimethyl-4-(8-[4-(7-chloro-4-quinolyl)piperazino]octyloxy)-5H-thiophen-2-one]	8 (≈ 15.9 µM)
CC1=C(OCCCCCCCCCN2CCN(c3ccnc4cc(Cl)ccc34)CC2)C(C)SC1=O (stereo not shown) [Compound 4d, 3,5-dimethyl-4-(9-[4-(7-chloro-4-quinolyl)piperazino]nonyloxy)-5H-thiophen-2-one]	8 (≈ 15.5 µM)
CC1=C(OCCCCCCCCCCN2CCN(c3ccnc4cc(Cl)ccc34)CC2)C(C)SC1=O (stereo not shown) [Compound 4e, 3,5-dimethyl-4-(10-[4-(7-chloro-4-quinolyl)piperazino]decyloxy)-5H-thiophen-2-one]	8 (≈ 15.1 µM)
CC1=C(OCCCCCCCCCCCCN2CCN(c3ccnc4cc(Cl)ccc34)CC2)C(C)SC1=O (stereo not shown) [Compound 4f, 3,5-dimethyl-4-(12-[4-(7-chloro-4-quinolyl)piperazino]dodecyloxy)-5H-thiophen-2-one]	8 (≈ 14.3 µM)
CC1=C(OCCCCCN2CCCN(c3ccnc4cc(Cl)ccc34)CC2)C(C)SC1=O (stereo not shown) [Compound 6a, 3,5-dimethyl-4-(5-[4-(7-chloro-4-quinolyl)-1,4-diazepan-1-yl]pentyloxy)-5H-thiophen-2-one]	16 (≈ 33.8 µM)
CC1=C(OCCCCCCN2CCCN(c3ccnc4cc(Cl)ccc34)CC2)C(C)SC1=O (stereo not shown) [Compound 6b, 3,5-dimethyl-4-(6-[4-(7-chloro-4-quinolyl)-1,4-diazepan-1-yl]hexyloxy)-5H-thiophen-2-one]	8 (≈ 16.4 µM)
CC1=C(OCCCCCCCCN2CCCN(c3ccnc4cc(Cl)ccc34)CC2)C(C)SC1=O (stereo not shown) [Compound 6c, 3,5-dimethyl-4-(8-[4-(7-chloro-4-quinolyl)-1,4-diazepan-1-yl]octyloxy)-5H-thiophen-2-one]	16 (≈ 31 µM)
CC1=C(OCCCCCCCCCN2CCCN(c3ccnc4cc(Cl)ccc34)CC2)C(C)SC1=O (stereo not shown) [Compound 6d, 3,5-dimethyl-4-(9-[4-(7-chloro-4-quinolyl)-1,4-diazepan-1-yl]nonyloxy)-5H-thiophen-2-one]	8 (≈ 15.1 µM)
CC1=C(OCCCCCCCCCCN2CCCN(c3ccnc4cc(Cl)ccc34)CC2)C(C)SC1=O (stereo not shown) [Compound 6e, 3,5-dimethyl-4-(10-[4-(7-chloro-4-quinolyl)-1,4-diazepan-1-yl]decyloxy)-5H-thiophen-2-one]	16 (≈ 29.4 µM)
CC1=C(OCCCCCCCCCCCCN2CCCN(c3ccnc4cc(Cl)ccc34)CC2)C(C)SC1=O (stereo not shown) [Compound 6f, 3,5-dimethyl-4-(12-[4-(7-chloro-4-quinolyl)-1,4-diazepan-1-yl]dodecyloxy)-5H-thiophen-2-one]	4 (≈ 6.99 µM)
NNC(=O)c1ccncc1 [Isoniazid, reference compound]	0.5 (≈ 3.65 µM)
C=C/C(C)=C/[C@@]1(C)SC(=O)C(C)=C1O [Thiolactomycin, reference compound]	25 (≈ 119 µM)

These compounds were tested on M. tuberculosis XDR-1 (XDR- strain) (assay: microbe, parasite or virus in culture). Settings: Mycobacterium tuberculosis, 504 h.
Format: cell-based, Mycobacterium tuberculosis

Structure (SMILES)	MIC [µg/mL]
NNC(=O)c1ccncc1 [Isoniazid, reference compound]	0.5 (≈ 3.65 µM)
C=C/C(C)=C/[C@@]1(C)SC(=O)C(C)=C1O [Thiolactomycin, reference compound]	25 (≈ 119 µM)

What follows are compounds tested on M. tuberculosis -617 (MDR- strain) (assay: microbe, parasite or virus in culture). Settings: Mycobacterium tuberculosis, 504 h.
Format: cell-based, Mycobacterium tuberculosis

Structure (SMILES)	MIC [µg/mL]
NNC(=O)c1ccncc1 [Isoniazid, reference compound]	128 (≈ 933 µM)
C=C/C(C)=C/[C@@]1(C)SC(=O)C(C)=C1O [Thiolactomycin, reference compound]	25 (≈ 119 µM)

Each compound was assayed on M. tuberculosis H37Rv (assay: In vivo efficacy in murine model of M. tuberculosis H37Rv infection). Settings: BALB/c mice, intranasal infection, treatment from 1 week post infection, PO once daily for 4 weeks; RIF 20 mg/kg, 3f 25 mg/kg.
Design: species or system mice (BALB/c)
Experimental: The Compound 3f used in this study ([…]). The compound 3f was tested in vivo at 25 mg/kg. Rifampicin at 20 mg/kg was also tested as positive control. For in vivo studies compound and rifampicin was dissolved in pure DMSO and formulation was prepared 50% PEG in water for oral administration. The final concentration of DMSO was less than 0.1% v/v.
The institutional animal Ethics committee of the Indian Institute of Integrative Medicine (CSIR, Jammu) approved all experimental protocols with animals and the use of animals. The animals were bred and maintained under standard husbandry conditions; viz. humidity, temperature (25±2° C.). 8-week-old female (BALB/c) mice 20-22 gm by weight were used for the efficacy studies. Animals were allowed 1 week of acclimation before intake into experimental studies. Feed and water were given ad libitum.
Infection of M. tuberculosis:
M. tuberculosis (H37Rv) for infection was grown by the culturing of bacteria from Lowenstein-Jensen slant in Middlebrooke 7H9 medium on a rotary shaker for 10 days at 37° C. […] The mice were sacrificed after week post infection (early control), and bacterial numbers in the lungs were determined by macerating the organs (lung) and plating serial tenfold serial dilution on Middlebrook 7H10 agar plates in triplicates. […]
Eight infected mice were sacrificed from the control group 7 day after the infection (before the initiation of treatment) to obtain the initial CFU load of M. tuberculosis H37Rv at the initiation of treatment. […] Viable bacteria were quantitated by plating 10-fold serial dilutions in duplicates on Middlebrook, 7H10 agar supplemented with 10% OADC (oleic acid albumin dextrose catalase, Becton Dickinson, Sparks, Md.) and incubated at 37° C. in 5% CO2 for 4-6 weeks. CFU per organ sample was counted and expressed as log10 CFU per organ. CFU during in-vivo studies were determined on Middlebrook 7H10 plates supplement with 10% OADC containing Vancomycin 10 μg/ml, Amphoterecin 10 μg/ml, Nalidaxic acid 25 μg/ml. […]

Structure (SMILES)	Log10 CFU/left Lung (mean ± SD) [Log10 CFU/left Lung]
CO[C@H]1/C=C/O[C@@]2(C)Oc3c(C)c(O)c4c(O)c(c(/C=N/N5CCN(C)CC5)c(O)c4c3C2=O)NC(=O)/C(C)=C\C=C\[C@H](C)[C@H](O)[C@@H](C)[C@@H](O)[C@@H](C)[C@H](OC(C)=O)[C@@H]1C [RIF, Rifampicin, reference compound]	2.0 ± 0.41
